Values quoted from earlier work in US5827837A, “Polyanion anti-inflammatory agents” (priority 1996, dated 1998).

Conditions: Ca^2+; read-out: Kd, calcium binding; cited from earlier work

For O=P(O)(O)O[C@H]1[C@H](OP(=O)(O)O)[C@@H](OP(=O)(O)O)[C@H](OP(=O)(O)O)[C@@H](OP(=O)(O)O)[C@H]1OP(=O)(O)O [InsP6, myo-inositol hexakisphosphate], the Kd is listed as roughly 5 µM.
